Test system: pediatric subjects with acute hypoxemic respiratory failure (AHRF)
Experiment: Pediatric AHRF study: adverse events, serious adverse events, deaths, discontinuations
Format: in vivo, human
Settings: 5 ppm
Experimental: This was a prospective, multicenter, randomized, double-blind, placebo-controlled, parallel-group study of the safety and efficacy of inhaled nitric oxide in pediatric subjects with acute hypoxemic respiratory failure (AHRF). The subjects were randomized to receive either 5 ppm inhaled nitric oxide or placebo.
Nitric Oxide for inhalation at 5 ppm was administered continuously into the inspiratory limb of the ventilator circuit in mechanically ventilated subjects using a blinded version of the INOvent® delivery system.
Subjects received 100% treatment gas (nitric oxide 5 ppm or placebo [nitrogen gas]) until Day 28 or extubation, whichever occurred first.
This was a prospective, multicenter, randomized, double-blind, placebo-controlled, Phase III study to assess the effects of nitric oxide for inhalation in the treatment of acute hypoxic respiratory failure (AHRF) in pediatric subjects. The study population consisted of male and female pediatric subjects, aged 44 weeks postconceptional age to 16 years age, who were admitted to the pediatric intensive care unit (PICU) and who required intubation because of AHRF. The inclusion/exclusion criteria are described in the Patients section below.
Standardized ventilatory management and weaning procedures were used. Ventilatory management was used based on an “open lung approach” using positive end-expiratory pressure (PEEP) to increase lung volume and limiting tidal volumes to reduce plateau pressures. Subjects received nitric oxide for inhalation at 5 ppm or placebo (100% Grade 5 nitrogen gas) into the inspiratory limb of the ventilator circuit using a blinded version of the INOvent® delivery system. The subjects were treated until Day 28 or extubation, whichever occurred first. Subjects were assessed daily using a spontaneous breathing trial, according to the institution's standard of care. Arterial blood gases (ABG), ventilator settings, methemoglobin, oxygenation index, systolic blood pressure, diastolic blood pressure, Pediatric Risk of Mortality (PRISM) III score, and subject positioning (prone or supine) were performed/recorded at specified times during the study. Selected centers also performed plasma cytokine assays, bronchoalveolar lavage fluid (BALF) assays, and a 6-month follow-up assessment.

[1] = AE with death as outcome, not suspected related to treatment
[2] = AE with death as outcome, suspected related to treatment
[3] = relationship to study treatment Not Suspected
[4] = relationship to study treatment Suspected

## [N]=O [Nitric Oxide, nitric oxide]
[1]
  Hepatic failure: 0 (0.0) n (%)
  Hypotension: 1 (3.8%) n (%)
  Intracranial pressure increased: 0 (0.0) n (%)
  Multi-organ failure: 0 (0.0) n (%)
  Pancreatitis: 0 (0.0) n (%)
  Pneumonia, aspergillus: 0 (0.0) n (%)
  Pulmonary hemorrhage: 0 (0.0) n (%)
  Renal failure: 0 (0.0) n (%)
  Renal impairment: 0 (0.0) n (%)
  Sepsis: 0 (0.0) n (%)
[2]
  Bradycardia: 0 (0.0) n (%)
  Brain edema: 0 (0.0) n (%)
  Cardiac arrest: 0 (0.0) n (%)
  Diabetic ketoacidosis: 0 (0.0) n (%)
  Hemolytic anemia: 0 (0.0) n (%)
  Hepatic failure: 0 (0.0) n (%)
  Hypotension: 0 (0.0) n (%)
  Intracranial pressure increased: 0 (0.0) n (%)
  Multi-organ failure: 0 (0.0) n (%)
  Pancreatitis: 0 (0.0) n (%)
  Pneumonia, aspergillus: 0 (0.0) n (%)
  Pulmonary hemorrhage: 0 (0.0) n (%)
  Renal failure: 0 (0.0) n (%)
  Renal impairment: 0 (0.0) n (%)
  Sepsis: 0 (0.0) n (%)
By actual treatment received
  Adverse event where treatment was stopped: Bradycardia, subjects n (%): 1 (3.8%)
  Adverse event where treatment was stopped: Hypotension, subjects n (%): 1 (3.8%)
  Adverse event where treatment was stopped: Pulmonary hemorrhage, subjects n (%): 0 (00) ^
  Adverse event where treatment was stopped: Sepsis, subjects n (%): 0 (0.0)^
  Serious adverse event: Bradycardia, subjects n (%): 1 (3.8%)
  Serious adverse event: Brain edema, subjects n (%): 0 (0.0)
  Serious adverse event: Cardiac arrest, subjects n (%): 0 (0.0)
  Serious adverse event: Cerebral artery occlusion, subjects n (%): 0 (0.0)
  Serious adverse event: Diabetic ketoacidosis, subjects n (%): 0 (0.0)
  Serious adverse event: Hemolytic anemia, subjects n (%): 0 (0.0)
  Serious adverse event: Hemopneumothorax, subjects n (%): 0 (0.0)
  Serious adverse event: Hemothorax, subjects n (%): 0 (0.0)
  Serious adverse event: Hepatic failure, subjects n (%): 0 (0.0)
  Serious adverse event: Hypotension, subjects n (%): 1 (3.8%)
  Serious adverse event: Hypoxia, subjects n (%): 0 (0.0)
  Serious adverse event: Intracranial pressure increased, subjects n (%): 0 (0.0)
  Serious adverse event: Multi-organ failure, subjects n (%): 0 (0.0)
  Serious adverse event: Pancreatitis, subjects n (%): 0 (0.0)
  Serious adverse event: Pneumonia, aspergillus, subjects n (%): 0 (0.0)
  Serious adverse event: Pulmonary hemorrhage, subjects n (%): 0 (0.0)
  Serious adverse event: Renal failure, acute, subjects n (%): 0 (0.0)
  Serious adverse event: Renal failure, subjects n (%): 0 (0.0)
  Serious adverse event: Renal impairment, subjects n (%): 0 (0.0)
  Serious adverse event: Respiratory failure, subjects n (%): 0 (0.0)
  Serious adverse event: Sepsis, subjects n (%): 0 (0.0)
  Serious adverse event: Subdural hematoma, subjects n (%): 0 (0.0)
  Serious adverse event: Unevaluable event, subjects n (%): 0 (0.0)
In words
  likelihood to experience adverse events versus placebo: no more likely
  overall safety and tolerability in children with AHRF: safe and well tolerated
  safety profile versus placebo (methemoglobin levels, frequency of AEs, mortality rates): compare favorably
N = 26
  Subjects with one or more AEs: 16 (61.5%) n (%)
  Subjects with one or more AEs suspected to be related to study treatment: 0 (0)^ ^ n (%)
  Subjects with one or more SAEs: 1 (3.9%) n (%)
  Subjects with one or more severe AEs: 2 (7.7%) n (%)
  Subjects withdrawn due to AEs: 1 (3.9%) n (%)
  Total AEs leading to discontinuation of study treatment: 2
  Total AEs suspected to be related to study treatment: 0
  Total SAEs: 2
  Total SAEs or AEs leading to discontinuation of study treatment suspected to be related to study treatment: 0
  Total severe AEs: 4
N = 26, counted by dictionary-derived term
  Total AEs: 52
[3]
  Adverse event where treatment was stopped: Bradycardia, subjects n (%): 1 (3.8%)
  Adverse event where treatment was stopped: Hypotension, subjects n (%): 1 (3.8%)
  Adverse event where treatment was stopped: Pulmonary hemorrhage, subjects n (%): 0 (0.0)^
  Adverse event where treatment was stopped: Sepsis, subjects n (%): 0 (0.0)^
  Serious adverse event: Bradycardia, subjects n (%): 1 (3.8%)
  Serious adverse event: Brain edema, subjects n (%): 0 (0.0)
  Serious adverse event: Cardiac arrest, subjects n (%): 0 (0.0)
  Serious adverse event: Cerebral artery occlusion, subjects n (%): 0 (0.0)
  Serious adverse event: Diabetic ketoacidosis, subjects n (%): 0 (0.0)
  Serious adverse event: Hemolytic anemia, subjects n (%): 0 (0.0)
  Serious adverse event: Hemopneumothorax, subjects n (%): 0 (0.0)
  Serious adverse event: Hemothorax, subjects n (%): 0 (0.0)
  Serious adverse event: Hepatic failure, subjects n (%): 0 (0.0)
  Serious adverse event: Hypotension, subjects n (%): 1 (3.8%)
  Serious adverse event: Hypoxia, subjects n (%): 0 (0.0)
  Serious adverse event: Intracranial pressure increased, subjects n (%): 0 (0.0)
  Serious adverse event: Multi-organ failure, subjects n (%): 0 (0.0)
  Serious adverse event: Pancreatitis, subjects n (%): 0 (0.0)
  Serious adverse event: Pneumonia, aspergillus, subjects n (%): 0 (0.0)
  Serious adverse event: Pulmonary hemorrhage, subjects n (%): 0 (0.0)
  Serious adverse event: Renal failure, acute, subjects n (%): 0 (0.0)
  Serious adverse event: Renal failure, subjects n (%): 0 (0.0)
  Serious adverse event: Renal impairment, subjects n (%): 0 (0.0)
  Serious adverse event: Respiratory failure, subjects n (%): 0 (0.0)
  Serious adverse event: Sepsis, subjects n (%): 0 (0.0)
  Serious adverse event: Subdural hematoma, subjects n (%): 0 (0.0)
  Serious adverse event: Unevaluable event, subjects n (%): 0 (0.0)
[4]
  Adverse event where treatment was stopped: Bradycardia, subjects n (%): 0 (0.0)
  Adverse event where treatment was stopped: Hypotension, subjects n (%): 0 (0.0)
  Adverse event where treatment was stopped: Pulmonary hemorrhage, subjects n (%): 0 (0.0)
  Adverse event where treatment was stopped: Sepsis, subjects n (%): 0 (0.0)
  Serious adverse event: Bradycardia, subjects n (%): 0 (0.0)
  Serious adverse event: Brain edema, subjects n (%): 0 (0.0)
  Serious adverse event: Cardiac arrest, subjects n (%): 0 (0.0)
  Serious adverse event: Cerebral artery occlusion, subjects n (%): 0 (0.0)
  Serious adverse event: Diabetic ketoacidosis, subjects n (%): 0 (0.0)
  Serious adverse event: Hemolytic anemia, subjects n (%): 0 (0.0)
  Serious adverse event: Hemopneumothorax, subjects n (%): 0 (0.0)
  Serious adverse event: Hemothorax, subjects n (%): 0 (0.0)
  Serious adverse event: Hepatic failure, subjects n (%): 0 (0.0)
